Data reported in the supplement of paper PMC8671470.

What was measured:
Details in all cases: 72 h
BV-173 [1] = test system: BV-173
In short: (§1)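 Fifteen myeloid leukaemia lines in RPMI 1640 were treated for 72 h at 37 °C and 5% CO2 with five tenfold doses from 1 to 10,000 nM, in duplicate. ATP luminescence was normalised to vehicle and to a positive control at 10 µM, then fitted with a four-parameter log-logistic model. The IC50 came from these fits.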

HEL [2] = test system: HEL
In short: as §1

HL-60 [3] = test system: HL-60
In short: as §1

K-562 [4] = test system: K-562
In short: as §1

KCL-22 [5] = test system: KCL-22
In short: as §1

KG-1 [6] = test system: KG-1
In short: as §1

KU-812 [7] = test system: KU-812
In short: as §1

LAMA-84 [8] = test system: LAMA-84
In short: as §1

ML-2 [9] = test system: ML-2
In short: as §1

MOLM-13 [10] = test system: MOLM-13
In short: as §1

MV4-11 [11] = test system: MV4-11
In short: as §1

Mono-Mac-6 [12] = test system: Mono-Mac-6
In short: as §1

NOMO-1 [13] = test system: NOMO-1
In short: as §1

SHI-1 [14] = test system: SHI-1
In short: as §1

THP-1 [15] = test system: THP-1
In short: as §1

BV-173 [16] = experiment: cell viability (% survival relative to DMSO control, bortezomib = 0%); higher = less cytotoxic
In short: (§2)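 Reported values are percent survival from duplicate wells, averaged. Fifteen myeloid leukaemia cell lines were treated in 384-well plates with compounds at 1, 10, 100, 1000 or 10000 nM for 72 h at 37 °C in 5% CO2. Signals from CellTiter-Glo luminescence were scaled with vehicle as 100% and a 10 µM positive control as 0%.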

HEL [17] = experiment: as above
In short: as §2

HL-60 [18] = experiment: as above
In short: as §2

K-562 [19] = experiment: as above
In short: as §2

KCL-22 [20] = experiment: as above
In short: as §2

KG-1 [21] = experiment: as above
In short: as §2

KU-812 [22] = experiment: as above
In short: as §2

LAMA-84 [23] = experiment: as above
In short: as §2

ML-2 [24] = experiment: as above
In short: as §2

MOLM-13 [25] = experiment: as above
In short: as §2

MV4-11 [26] = experiment: as above
In short: as §2

Mono-Mac-6 [27] = experiment: as above
In short: as §2

NOMO-1 [28] = experiment: as above
In short: as §2

SHI-1 [29] = experiment: as above
In short: as §2

THP-1 [30] = experiment: as above
In short: as §2

C[C@H]1O[C@H](O[C@H]2[C@H](O)[C@@H](O)[C@@H](O[C@H]3[C@H](O)[C@@H](O)C(O)O[C@@H]3CO)O[C@@H]2CO)[C@H](O)[C@@H](O)[C@@H]1N[C@H]1C=C(CO)[C@@H](O)[C@H](O)[C@H]1O (mixture of isomers) [Acarbose]
Details | IC50 (cell viability) [µM]
BV-173 [1] | > 10
HEL [2] | > 10
HL-60 [3] | > 10
K-562 [4] | > 10
KCL-22 [5] | > 10
KG-1 [6] | > 10
KU-812 [7] | > 10
LAMA-84 [8] | > 10
ML-2 [9] | > 10
MOLM-13 [10] | > 10
MV4-11 [11] | > 10
Mono-Mac-6 [12] | > 10
NOMO-1 [13] | > 10
SHI-1 [14] | > 10
THP-1 [15] | > 10

cell viability [%]
Details | 1 nM | 10 nM | 100 nM | 1000 nM | 10000 nM
BV-173 [16] | 95.6 | 99.7 | 110 | 103 | 83.4
HEL [17] | 117 | 111 | 114 | 88.8 | 98.8
HL-60 [18] | 125 | 111 | 122 | 99.1 | 106
K-562 [19] | 111 | 131 | 88.1 | 94.9 | 98.8
KCL-22 [20] | 116 | 117 | 112 | 86.5 | 97.2
KG-1 [21] | 99.1 | 107 | 93.2 | 105 | 95.7
KU-812 [22] | 91.8 | 94.5 | 107 | 114 | 93.9
LAMA-84 [23] | 93.4 | 84.7 | 108 | 92.7 | 93.4
ML-2 [24] | 104 | 102 | 103 | 94.8 | 95.8
MOLM-13 [25] | 133 | 86.7 | 106 | 95.8 | 94.9
MV4-11 [26] | 108 | 73 | 111 | 89.1 | 94.9
Mono-Mac-6 [27] | 101 | 95.6 | 102 | 111 | 87
NOMO-1 [28] | 98.1 | 97.7 | 103 | 96.1 | 88.4
SHI-1 [29] | 116 | 120 | 99.8 | 104 | 97.7
THP-1 [30] | 87.6 | 107 | 96.9 | 95.1 | 97.1
